The text below walks through data of patent US9924716B2, “Molecules having pesticidal utility, and intermediates, compositions, and processes, related thereto” (Dow AgroSciences LLC, priority 2016, dated 2018).

In experiment [1] the test system is Cabbage Looper (Trichoplusia ni, TRIPNI) second instar larvae. Nature of the experiment: Bioassay on Cabbage Looper (CL), 128-well diet tray assay. Format: in vivo. Conditions: for pest or weed control at 50 µg/cm2: Cabbage Looper, Table ABC Biological Results, read-out: CL rating; for mortality at 0.05 µg/cm2: 0.05 μg/cm^2 on artificial diet; for mortality at 0.05 µg/cm2 / mortality at 0.5 µg/cm2 / mortality at 5 µg/cm2: read-out: Percent control (or mortality) CL; for mortality at 0.5 µg/cm2: 0.5 μg/cm^2 on artificial diet; for mortality at 5 µg/cm2: 5 μg/cm^2 on artificial diet. Here is the method: (§1) Certain molecules disclosed in this document were tested against BAW, CEW, and CL using procedures described in the following examples. In the reporting of the results, the “BAW, CEW, & CL Rating Table” was used (See Table Section).
Bioassays on CL were conducted using a 128-well diet tray assay. one to five second instar CL larvae were placed in each well (3 mL) of the diet tray that had been previously filled with 1 mL of artificial diet to which 50 μg/cm^2 of the test molecule (dissolved in 50 μL of 90:10 acetone-water mixture) had been applied (to each of eight wells) and then allowed to dry. Trays were covered with a clear self-adhesive cover and held at 25° C., 14:10 light-dark for five to seven days. Percent mortality was recorded for the larvae in each well; activity in the eight wells was then averaged. The results are indicated in the table entitled “Table ABC: Biological Results” (See Table Section).
(§2) Bioassays on BAW and CL were conducted according to the procedures outlined in Example A: Bioassays on Beet Armyworm (“BAW”) and Cabbage Looper (“CL”) using the indicated concentrations.

Experiment [2] concerns Beet Armyworm (Spodoptera exigua, LAPHEG) second instar larvae. Nature of the experiment: Bioassay on Beet Armyworm (BAW), 128-well diet tray assay. Type of experiment: in vivo. Conditions: for pest or weed control at 50 µg/cm2: Beet Armyworm, Table ABC Biological Results, read-out: BAW rating; for mortality at 0.05 µg/cm2: 0.05 μg/cm^2 on artificial diet; for mortality at 0.05 µg/cm2 / mortality at 0.5 µg/cm2 / mortality at 5 µg/cm2: read-out: Percent control (or mortality) BAW; for mortality at 0.5 µg/cm2: 0.5 μg/cm^2 on artificial diet; for mortality at 5 µg/cm2: 5 μg/cm^2 on artificial diet. Here is the method:
as §1
Bioassays on BAW were conducted using a 128-well diet tray assay. one to five second instar BAW larvae were placed in each well (3 mL) of the diet tray that had been previously filled with 1 mL of artificial diet to which 50 μg/cm^2 of the test molecule (dissolved in 50 μL of 90:10 acetone-water mixture) had been applied (to each of eight wells) and then allowed to dry. Trays were covered with a clear self-adhesive cover and held at 25° C., 14:10 light-dark for five to seven days. Percent mortality was recorded for the larvae in each well; activity in the eight wells was then averaged. The results are indicated in the table entitled “Table ABC: Biological Results” (See Table Section).
as §2

Regarding `CC[C@H](NC(=O)CC(F)(F)F)NC(=O)c1ccc(/C(F)=C/C(c2cc(Cl)c(Cl)c(Cl)c2)C(F)(F)F)cc1C(F)(F)F` (stereo partly drawn) [F35, 4-((Z)-1,4,4,4-Tetrafluoro-3-(3,4,5-trichlorophenyl)but-1-en-1-yl)-2-(trifluoromethyl)-N—((R)-1-(3,3,3-trifluoropropanamido)propyl)benzamide], the pest or weed control at 50 µg/cm2 in experiment [1] and in experiment [2] was 50 to 100% each time.

For the molecule `C[C@H](NC(=O)CCC(F)(F)F)NC(=O)c1ccc(/C(F)=C/C(c2cc(Cl)c(Cl)c(Cl)c2)C(C)(F)F)cc1C(F)(F)F` (stereo partly drawn) [F10, 4-((Z)-1,4,4-Trifluoro-3-(3,4,5-trichlorophenyl)pent-1-en-1-yl)-N—((R)-1-(4,4,4-trifluorobutanamido)ethyl)-2-(trifluoromethyl)benzamide], the pest or weed control at 50 µg/cm2 in experiment [1] and in experiment [2] was 50 to 100% each time.

`C[C@H](NC(=O)CC(F)(F)F)NC(=O)c1ccc(/C(F)=C/C(c2cc(Cl)c(Cl)c(Cl)c2)C(F)(F)F)cc1Br` (stereo partly drawn) [F4, 2-Bromo-4-((Z)-1,4,4,4-tetrafluoro-3-(3,4,5-trichlorophenyl)but-1-en-1-yl)-N—((R)-1-(3,3,3-trifluoropropanamido)ethyl)benzamide]: in experiment [1], the mortality at 0.05 µg/cm2 stood at 100%, the mortality at 0.5 µg/cm2 came to 100%, the mortality at 5 µg/cm2 is 100% and the pest or weed control at 50 µg/cm2 lay within 50 to 100%. Moreover, in experiment [2], the mortality at 0.05 µg/cm2 worked out at 100%, the mortality at 0.5 µg/cm2 turned out to be 100%, the mortality at 5 µg/cm2 amounted to 100% and the pest or weed control at 50 µg/cm2 fell in the range of 50 to 100%.

For the molecule `C[C@H](NC(=O)CCC(F)(F)F)NC(=O)c1ccc(/C(F)=C/C(c2ccc(Cl)c(Cl)c2)C(C)(F)F)cc1C(F)(F)F` (stereo partly drawn) [F40, 4-((Z)-3-(3,4-Dichlorophenyl)-1,4,4-trifluoropent-1-en-1-yl)-N—((R)-1-(4,4,4-trifluorobutanamido)ethyl)-2-(trifluoromethyl)benzamide], the pest or weed control at 50 µg/cm2 in experiment [1] and in experiment [2] was 50 to 100% throughout.

Turning to `C[C@H](NC(=O)CC(F)(F)F)NC(=O)c1ccc(/C(F)=C/C(c2ccc(Cl)c(Br)c2)C(F)(F)F)cc1C(F)(F)F` (stereo partly drawn) [F37, 4-((Z)-3-(3-Bromo-4-chlorophenyl)-1,4,4,4-tetrafluorobut-1-en-1-yl)-2-(trifluoromethyl)-N—((R)-1-(3,3,3-trifluoropropanamido)ethyl)benzamide], the pest or weed control at 50 µg/cm2 in experiment [1] and in experiment [2] was 50 to 100% in each case.

With `CCC(=O)N[C@@H](C)NC(=O)c1ccc(/C(F)=C/C(c2cc(Cl)c(Cl)c(Cl)c2)C(F)(F)F)cc1C(F)(F)F` (stereo partly drawn) [F34, N—((R)-1-propionamidoethyl)-4-((Z)-1,4,4,4-tetrafluoro-3-(3,4,5-trichlorophenyl)but-1-en-1-yl)-2-(trifluoromethyl)benzamide], the pest or weed control at 50 µg/cm2 in experiment [1] and in experiment [2] was 50 to 100% in each case.

With `CCC(F)(F)C(/C=C(\F)c1ccc(C(=O)N[C@H](C)NC(=O)CCC(F)(F)F)c(C(F)(F)F)c1)c1cc(Cl)c(Cl)c(Cl)c1` (stereo partly drawn) [F21, 4-((Z)-1,4,4-Trifluoro-3-(3,4,5-trichlorophenyl)hex-1-en-1-yl)-N—((R)-1-(4,4,4-trifluorobutanamido)ethyl)-2-(trifluoromethyl)benzamide], the pest or weed control at 50 µg/cm2 in experiment [1] and in experiment [2] was 50 to 100% each time.

For the molecule `C[C@H](NC(=O)CC(F)(F)F)NC(=O)c1ccc(/C(F)=C/C(c2cc(Cl)c(Cl)c(Cl)c2)C(F)(F)F)cc1Cl` (stereo partly drawn) [F7, 2-Chloro-4-((Z)-1,4,4,4-tetrafluoro-3-(3,4,5-trichlorophenyl)but-1-en-1-yl)-N—((R)-1-(3,3,3-trifluoropropanamido)ethyl)benzamide], in experiment [1], the mortality at 0.05 µg/cm2 was 100%, the mortality at 0.5 µg/cm2 worked out at 100%, the mortality at 5 µg/cm2 turned out to be 100% and the pest or weed control at 50 µg/cm2 is 50 to 100%. In experiment [2], the mortality at 0.05 µg/cm2 came to 79%, the mortality at 0.5 µg/cm2 turned out to be 100%, the mortality at 5 µg/cm2 is 100% and the pest or weed control at 50 µg/cm2 was in the range of 50 to 100%.

Regarding `C[C@@H](NC(=O)c1ccc(/C(F)=C/C(c2cc(Cl)c(Cl)c(Cl)c2)C(F)(F)F)cc1C(F)(F)F)NC(=O)C1CC1` (stereo partly drawn) [F27, N—((R)-1-(cyclopropanecarboxamido)ethyl)-4-((Z)-1,4,4,4-tetrafluoro-3-(3,4,5-trichlorophenyl)but-1-en-1-yl)-2-(trifluoromethyl)benzamide], the pest or weed control at 50 µg/cm2 in experiment [1] and in experiment [2] was 50 to 100% in each case.

Take `C[C@H](NC(=O)CC(F)(F)F)NC(=O)c1ccc(/C(F)=C/C(c2cc(Cl)c(Cl)c(Cl)c2)C(C)(F)F)cc1C(F)(F)F` (stereo partly drawn) [F8, 4-((Z)-1,4,4-Trifluoro-3-(3,4,5-trichlorophenyl)pent-1-en-1-yl)-2-(trifluoromethyl)-N—((R)-1-(3,3,3-trifluoropropanamido)ethyl)benzamide]: the pest or weed control at 50 µg/cm2 in experiment [1] and in experiment [2] was 50 to 100% throughout.

Turning to `Cc1cc(/C(F)=C/C(c2cc(Cl)c(Cl)c(Cl)c2)C(C)(F)F)ccc1C(=O)N[C@H](C)NC(=O)CC(F)(F)F` (stereo partly drawn) [F6, 2-Methyl-4-((Z)-1,4,4-trifluoro-3-(3,4,5-trichlorophenyl)pent-1-en-1-yl)-N—((R)-1-(3,3,3-trifluoropropanamido)ethyl)benzamide], the pest or weed control at 50 µg/cm2 in experiment [1] and in experiment [2] was 50 to 100% throughout.

`C[C@H](NC(=O)NC1CC1)NC(=O)c1ccc(/C(F)=C/C(c2cc(Cl)c(Cl)c(Cl)c2)C(F)(F)F)cc1C(F)(F)F` (stereo partly drawn) [F29, N—((S)-1-(3-cyclopropylureido)ethyl)-4-((Z)-1,4,4,4-tetrafluoro-3-(3,4,5-trichlorophenyl)but-1-en-1-yl)-2-(trifluoromethyl)benzamide]: the pest or weed control at 50 µg/cm2 in experiment [1] and in experiment [2] was 50 to 100% throughout.

`C[C@H](NC(=O)CCC(F)(F)F)NC(=O)c1ccc(/C(F)=C/C(c2ccc(Cl)c(Br)c2)C(F)(F)F)cc1C(F)(F)F` (stereo partly drawn) [PF13, 4-((Z)-3-(3-Bromo-4-chlorophenyl)-1,4,4,4-tetrafluorobut-1-en-1-yl)-N—((R)-1-(4,4,4-trifluorobutanamido)ethyl)-2-(trifluoromethyl)benzamide]: the pest or weed control at 50 µg/cm2 in experiment [1] and in experiment [2] was 50 to 100% each time.

As to `C[C@H](NC(=O)CC(F)(F)F)NC(=O)c1ccc(/C(F)=C/C(c2ccc(Br)c(Cl)c2)C(F)(F)F)cc1C(F)(F)F` (stereo partly drawn) [PF8, 4-((Z)-3-(4-Bromo-3-chlorophenyl)-1,4,4,4-tetrafluorobut-1-en-1-yl)-2-(trifluoromethyl)-N—((R)-1-(3,3,3-trifluoropropanamido)ethyl)benzamide], the pest or weed control at 50 µg/cm2 in experiment [1] and in experiment [2] was 50 to 100% in each case.

In the case of `Cc1cc(/C(F)=C/C(c2cc(Cl)c(Cl)c(Cl)c2)C(F)(F)F)ccc1C(=O)N[C@H](C)NC(=O)CCC(F)(F)F` (stereo partly drawn) [F2, 2-Methyl-4-((Z)-1,4,4,4-tetrafluoro-3-(3,4,5-trichlorophenyl)but-1-en-1-yl)-N—((R)-1-(4,4,4-trifluorobutanamido)ethyl)benzamide], in experiment [1], the mortality at 0.05 µg/cm2 was found to be 100%, the mortality at 0.5 µg/cm2 was determined as 100%, the mortality at 5 µg/cm2 was 100% and the pest or weed control at 50 µg/cm2 lay within 50 to 100%. In experiment [2], the mortality at 0.05 µg/cm2 was found to be 100%, the mortality at 0.5 µg/cm2 was determined as 100%, the mortality at 5 µg/cm2 is 100% and the pest or weed control at 50 µg/cm2 lay within 50 to 100%.

As for `C[C@H](NC(=O)CCC(F)(F)F)NC(=O)c1ccc(/C(F)=C/C(c2cc(Cl)c(Cl)c(Cl)c2)C(F)(F)F)cc1Br` (stereo partly drawn) [F3, 2-Bromo-4-((Z)-1,4,4,4-tetrafluoro-3-(3,4,5-trichlorophenyl)but-1-en-1-yl)-N—((R)-1-(4,4,4-trifluorobutanamido)ethyl)benzamide], in experiment [1], the mortality at 0.05 µg/cm2 was determined as 100%, the mortality at 0.5 µg/cm2 came to 100%, the mortality at 5 µg/cm2 turned out to be 100% and the pest or weed control at 50 µg/cm2 lay within 50 to 100%. Besides, in experiment [2], the mortality at 0.05 µg/cm2 worked out at 100%, the mortality at 0.5 µg/cm2 was determined as 100%, the mortality at 5 µg/cm2 worked out at 100% and the pest or weed control at 50 µg/cm2 was 50 to 100%.

Consider `C[C@@H](NC(=O)c1ccc(/C(F)=C/C(c2cc(Cl)c(Cl)c(Cl)c2)C(F)(F)F)cc1C(F)(F)F)NS(=O)(=O)CC(F)(F)F` (stereo partly drawn) [F28, 4-((Z)-1,4,4,4-tetrafluoro-3-(3,4,5-trichlorophenyl)but-1-en-1-yl)-N—((S)-1-(2,2,2-trifluoroethylsulfonamido)ethyl)-2-(trifluoromethyl)benzamide], for which the pest or weed control at 50 µg/cm2 in experiment [1] and in experiment [2] was 50 to 100% throughout.
